The NIST ThermoML archive (doi:10.1016/j.jct.2003.09.013)
“And” between values parts separate entries of the source, which are not always exact repeats. Equal entries are not always repeated.

Experiment: mn = molality of the nth substance listed, in mol/kg
Settings: 350 kPa, Liquid; for molar volume: Vibrating tube method; for apparent molar heat capacity: Extra sensitive DSC

O=[N+]([O-])[O-].O=[N+]([O-])[O-].[Pb+2] [lead(II) nitrate] + O
Settings | apparent molar heat capacity [J/K/mol] | apparent molar volume | molar volume
318.15 K, m1 = 0.01959 | – | 4.413e-05 m3/mol | –
318.15 K, m1 = 0.01983 | – | 4.13e-05 m3/mol | –
318.15 K, m1 = 0.02999 | – | 4.23e-05 m3/mol and 3.71e-05 m3/mol | –
318.15 K, m1 = 0.04862 | – | 4.32e-05 m3/mol | –
318.15 K, m1 = 0.05035 | – | 4.763e-05 m3/mol | –
318.15 K, m1 = 0.1004 | – | 4.49e-05 m3/mol and 4.36e-05 m3/mol | –
318.15 K, m1 = 0.2435 | – | 4.709e-05 m3/mol | –
318.15 K, m1 = 0.392 | – | 4.824e-05 m3/mol | –
318.15 K, m1 = 0.4885 | – | 4.881e-05 m3/mol | 4.881e-05 m3/mol
323.15 K, m1 = 0.392 | 10.5 | – | –
323.15 K, m1 = 0.4885 | 27.8 | – | –
328.15 K, m1 = 0.01959 | – | 4.522e-05 m3/mol | 4.522e-05 m3/mol
328.15 K, m1 = 0.01983 | – | 4.163e-05 m3/mol | 4.163e-05 m3/mol
328.15 K, m1 = 0.02999 | – | 4.215e-05 m3/mol and 3.58e-05 m3/mol | 4.215e-05 m3/mol and 3.58e-05 m3/mol
328.15 K, m1 = 0.04862 | – | 4.365e-05 m3/mol | 4.365e-05 m3/mol
328.15 K, m1 = 0.05035 | – | 4.871e-05 m3/mol | 4.871e-05 m3/mol
328.15 K, m1 = 0.1004 | – | 4.523e-05 m3/mol and 4.39e-05 m3/mol | 4.523e-05 m3/mol and 4.39e-05 m3/mol
328.15 K, m1 = 0.2435 | – | 4.806e-05 m3/mol | 4.806e-05 m3/mol
328.15 K, m1 = 0.392 | 10.3 | 4.911e-05 m3/mol | 4.911e-05 m3/mol
328.15 K, m1 = 0.4885 | 27.3 | 4.978e-05 m3/mol | 4.978e-05 m3/mol
333.15 K, m1 = 0.392 | 10 | – | –
333.15 K, m1 = 0.4885 | 26.8 | – | –
338.15 K, m1 = 0.01959 | – | 4.5e-05 m3/mol | 4.5e-05 m3/mol
338.15 K, m1 = 0.01983 | – | 4.114e-05 m3/mol | 4.114e-05 m3/mol
338.15 K, m1 = 0.02999 | – | 4.265e-05 m3/mol and 3.58e-05 m3/mol | 4.265e-05 m3/mol and 3.58e-05 m3/mol
338.15 K, m1 = 0.04862 | – | 4.42e-05 m3/mol | 4.42e-05 m3/mol
338.15 K, m1 = 0.05035 | – | 4.942e-05 m3/mol | 4.942e-05 m3/mol
338.15 K, m1 = 0.1004 | – | 4.599e-05 m3/mol and 4.45e-05 m3/mol | 4.599e-05 m3/mol and 4.45e-05 m3/mol
338.15 K, m1 = 0.2435 | – | 4.89e-05 m3/mol | 4.89e-05 m3/mol
338.15 K, m1 = 0.392 | 9.1 | 4.981e-05 m3/mol | 4.981e-05 m3/mol
338.15 K, m1 = 0.4885 | 25.9 | 5.059e-05 m3/mol | 5.059e-05 m3/mol
343.15 K, m1 = 0.392 | 8 | – | –
343.15 K, m1 = 0.4885 | 24.7 | – | –
348.15 K, m1 = 0.01959 | – | 4.33e-05 m3/mol | 4.33e-05 m3/mol
348.15 K, m1 = 0.02999 | – | 3.57e-05 m3/mol | 3.57e-05 m3/mol
348.15 K, m1 = 0.05035 | – | 4.93e-05 m3/mol | 4.93e-05 m3/mol
348.15 K, m1 = 0.1004 | – | 4.662e-05 m3/mol and 4.47e-05 m3/mol | 4.662e-05 m3/mol and 4.47e-05 m3/mol
348.15 K, m1 = 0.2435 | – | 4.92e-05 m3/mol | 4.92e-05 m3/mol
348.15 K, m1 = 0.392 | 6.7 | 5.034e-05 m3/mol | 5.034e-05 m3/mol
348.15 K, m1 = 0.4885 | 23.3 | 5.112e-05 m3/mol | 5.112e-05 m3/mol
353.15 K, m1 = 0.392 | 5.2 | – | –
353.15 K, m1 = 0.4885 | 22 | – | –
358.15 K, m1 = 0.01959 | – | 4.397e-05 m3/mol | 4.397e-05 m3/mol
358.15 K, m1 = 0.02999 | – | 3.55e-05 m3/mol | 3.55e-05 m3/mol
358.15 K, m1 = 0.05035 | – | 4.866e-05 m3/mol | 4.866e-05 m3/mol
358.15 K, m1 = 0.1004 | – | 4.48e-05 m3/mol and 4.513e-05 m3/mol | 4.48e-05 m3/mol and 4.513e-05 m3/mol
358.15 K, m1 = 0.2435 | – | 4.929e-05 m3/mol | 4.929e-05 m3/mol
358.15 K, m1 = 0.392 | 3.8 | 5.016e-05 m3/mol | 5.016e-05 m3/mol
358.15 K, m1 = 0.4885 | 20.5 | 5.11e-05 m3/mol | 5.11e-05 m3/mol
363.15 K, m1 = 0.392 | 2.1 | – | –
363.15 K, m1 = 0.4885 | 18.8 | – | –
368.15 K, m1 = 0.01959 | – | 4.451e-05 m3/mol | 4.451e-05 m3/mol
368.15 K, m1 = 0.02999 | – | 3.49e-05 m3/mol | 3.49e-05 m3/mol
368.15 K, m1 = 0.05035 | – | 4.751e-05 m3/mol | 4.751e-05 m3/mol
368.15 K, m1 = 0.1004 | – | 4.02e-05 m3/mol and 4.44e-05 m3/mol | 4.02e-05 m3/mol and 4.44e-05 m3/mol
368.15 K, m1 = 0.2435 | – | 4.902e-05 m3/mol | 4.902e-05 m3/mol
368.15 K, m1 = 0.392 | – | 4.883e-05 m3/mol | 4.883e-05 m3/mol
368.15 K, m1 = 0.4885 | 16.9 | 5.055e-05 m3/mol | 5.055e-05 m3/mol
373.15 K, m1 = 0.4885 | 14.8 | – | –
378.15 K, m1 = 0.4885 | 12.1 | – | –
383.15 K, m1 = 0.4885 | 9.5 | – | –
388.15 K, m1 = 0.4885 | 6.8 | – | –
393.15 K, m1 = 0.4885 | 3.2 | – | –
